Results reported in patent US12527778B2, “Enantiomers of a series of antiviral compounds” (Innovative Molecules GmbH, priority 2017, dated 2026).

Test: aqueous solubility (PBS, pH 7.4), shake flask
Type: physicochemical
Experimental: The aqueous solubility (PBS, pH 7.4) was determined at Eurofins, Cerep, Panlabs according to C. A. Lipinski et al. Adv. Drug Del. Rev. 1997:46, 3.
Measurement of the aqueous solubility was performed according to Lipinski, C. A. et al. Adv. Drug Del. Rev. 1997:46, 3. The relevant information from the literature is described below.
In addition, chromatographic purity (%) was defined as the peak area of the principal peak relative to the total integrated peak area in the HPLC chromatogram of the calibration standard.

**Q.** For `Cc1nc(N(C)C(=O)Cc2ccc(-c3cc(F)ccc3F)cc2)sc1S(C)(=N)=O` (racemic) [Example 7, 2-(2′,5′-Difluoro-[1,1′-biphenyl]-4-yl)-N-methyl-N-(4-methyl-5-(S-methylsulfonimidoyl)thiazol-2-yl)acetamide], which “solubility in comparison to Example 87 (WO2001/047904)” value is on record?
**A.** The value was “significantly increased solubility (at least one order of magnitude)”.
